# Patent US7217730B2, “Method for the use of pyranoindole derivatives to treat infection with Hepatitis C virus” (Wyeth, priority 2002, dated 2007)
# Target: T1, NS5B from the BK strain (genotype 1b) (Hepatitis C virus genotype 1b, UniProt P26663)
# T1 construct: NS5B from the BK strain (genotype 1b) is expressed in E. coli as a protein in which the 21 C-terminal amino acids are replaced; made in house; host or cells: E. coli
# Assay: Hepatitis C polymerase inhibition, NS5B BK strain, 33P-GTP filter assay
# Assay type: biochemical
# Details: Table 1A; for inhibition at 20 µM: 20 μM compound, read-out: HCV pol % inh at 20 μM; for IC50: NS5B BK strain, read-out: HCV pol BK IC50
# Procedure, shortened: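 E. coli-expressed NS5B (BK, genotype 1b) with the 21 C-terminal residues replaced by a linker-His6 tag was preincubated with compound for 15 min at room temperature. It then extended a hairpin-primed heteropolymeric RNA (~3 nM, ~760 nt product) with α-[33P]-GTP for 2 h at 22–25° C. The reaction was stopped with EDTA, and incorporated label was counted on filters.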
# T1 sequence (P26663 2420-2989): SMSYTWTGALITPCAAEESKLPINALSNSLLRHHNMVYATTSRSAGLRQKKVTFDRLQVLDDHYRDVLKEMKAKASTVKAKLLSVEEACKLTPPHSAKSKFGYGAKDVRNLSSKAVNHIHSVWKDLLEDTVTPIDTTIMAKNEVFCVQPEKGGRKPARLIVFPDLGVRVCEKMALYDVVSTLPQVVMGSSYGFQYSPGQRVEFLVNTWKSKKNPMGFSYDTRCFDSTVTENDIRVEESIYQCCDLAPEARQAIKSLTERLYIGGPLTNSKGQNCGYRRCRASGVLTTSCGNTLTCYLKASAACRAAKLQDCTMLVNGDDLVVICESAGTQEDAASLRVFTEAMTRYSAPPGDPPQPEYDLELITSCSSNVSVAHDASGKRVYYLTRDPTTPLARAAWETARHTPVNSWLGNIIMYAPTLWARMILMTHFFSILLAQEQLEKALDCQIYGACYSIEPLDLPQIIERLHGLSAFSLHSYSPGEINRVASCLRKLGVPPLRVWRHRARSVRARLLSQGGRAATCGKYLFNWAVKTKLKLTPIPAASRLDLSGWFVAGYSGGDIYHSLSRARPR
Structure (SMILES),inhibition at 20 µM,IC50
"C/C=C/CCC1(CC(=O)O)OCCc2c1[nH]c1c(Cl)cc(C)c(C#N)c21 (stereo not shown) [Example 186, {8-chloro-5-cyano-6-methyl-1-[(3E)-pent-3-enyl]-1,3,4,9-tetrahydropyrano[3,4-b]indol-1-yl}acetic acid]",2%,> 5000 nM
"Cc1cc(Cl)c2[nH]c3c(c2c1C#N)CCOC3(CC(=O)O)c1ccccc1 (stereo not shown) [Example 187, (8-chloro-5-cyano-6-methyl-1-phenyl-1,3,4,9-tetrahydropyrano[3,4-b]indol-1-yl)acetic acid]",61%,> 5000 nM
"Cc1cc(Cl)c2[nH]c3c(c2c1C#N)CCOC3(CC(=O)O)c1ccc(C(=O)O)cc1 (stereo not shown) [Example 188, 4-[1-(carboxymethyl)-8-chloro-5-cyano-6-methyl-1,3,4,9-tetrahydropyrano[3,4-b]indol-1-yl]benzoic acid]",76%,> 5000 nM
"CCC1(CC(=O)O)OCCc2c1[nH]c1c(F)cc(F)c(Br)c21 (stereo not shown) [Example 189, (5-bromo-1-ethyl-6,8-difluoro-1,3,4,9-tetrahydropyrano[3,4-b]indol-1-yl)acetic acid]",74%,4200 nM
"CCCC1(CC(=O)O)OCCc2c1[nH]c1c(F)cc(F)c(Br)c21 (stereo not shown) [Example 190, (5-bromo-6,8-difluoro-1-propyl-1,3,4,9-tetrahydropyrano[3,4-b]indol-1-yl)acetic acid]",94%,200 nM
"CCCCC1(CC(=O)O)OCCc2c1[nH]c1c(F)cc(F)c(Br)c21 (stereo not shown) [Example 191, (5-bromo-1-butyl-6,8-difluoro-1,3,4,9-tetrahydropyrano[3,4-b]indol-1-yl)acetic acid]",93%,400 nM
"O=C(O)CC1(c2ccoc2)OCCc2c1[nH]c1c(F)cc(F)c(Br)c21 (stereo not shown) [Example 192, [5-bromo-6,8-difluoro-1-(3-furyl)-1,3,4,9-tetrahydropyrano[3,4-b]indol-1-yl]acetic acid]",74%,> 5000 nM
"CC(C)C1(CC(=O)O)OCCc2c1[nH]c1c(F)cc(F)c(Br)c21 (stereo not shown) [Example 193, (5-bromo-6,8-difluoro-1-isopropyl-1,3,4,9-tetrahydropyrano[3,4-b]indol-1-yl)acetic acid]",69%,4500 nM
"CCC1(CC(=O)O)OCCc2c1[nH]c1c(F)cc(F)c(C#N)c21 (stereo not shown) [Example 194, (5-cyano-1-ethyl-6,8-difluoro-1,3,4,9-tetrahydropyrano[3,4-b]indol-1-yl)acetic acid]",50%,> 5000 nM
"CCCC1(CC(=O)O)OCCc2c1[nH]c1c(F)cc(F)c(C#N)c21 (stereo not shown) [Example 195, (5-cyano-6,8-difluoro-1-propyl-1,3,4,9-tetrahydropyrano[3,4-b]indol-1-yl)acetic acid]",90%,270 nM
"CCCCC1(CC(=O)O)OCCc2c1[nH]c1c(F)cc(F)c(C#N)c21 (stereo not shown) [Example 196, (1-butyl-5-cyano-6,8-difluoro-1,3,4,9-tetrahydropyrano[3,4-b]indol-1-yl)acetic acid]",77%,1200 nM
"N#Cc1c(F)cc(F)c2[nH]c3c(c12)CCOC3(CC(=O)O)c1ccoc1 (stereo not shown) [Example 197, [5-cyano-6,8-difluoro-1-(3-furyl)-1,3,4,9-tetrahydropyrano[3,4-b]indol-1-yl]acetic acid]",55%,> 5000 nM
"CC(C)C1(CC(=O)O)OCCc2c1[nH]c1c(F)cc(F)c(C#N)c21 (stereo not shown) [Example 198, (5-cyano-6,8-difluoro-1-isopropyl-1,3,4,9-tetrahydropyrano[3,4-b]indol-1-yl)acetic acid]",82%,> 5000 nM
"Cc1cc(F)c(Br)c2c3c([nH]c12)C(C)(CC(=O)O)OCC3 (stereo not shown) [Example 199, (5-bromo-6-fluoro-1,8-dimethyl-1,3,4,9-tetrahydropyrano[3,4-b]indol-1-yl)acetic acid]",52%,> 5000 nM
"CCC1(CC(=O)O)OCCc2c1[nH]c1c(C)cc(F)c(Br)c21 (stereo not shown) [Example 200, (5-bromo-1-ethyl-6-fluoro-8-methyl-1,3,4,9-tetrahydropyrano[3,4-b]indol-1-yl)acetic acid]",83%,2100 nM
"CCCC1(CC(=O)O)OCCc2c1[nH]c1c(C)cc(F)c(Br)c21 (stereo not shown) [Example 201, (5-bromo-6-fluoro-8-methyl-1-propyl-1,3,4,9-tetrahydropyrano[3,4-b]indol-1-yl)acetic acid]",82%,150 nM
"Cc1cc(F)c(Br)c2c3c([nH]c12)C(CC(=O)O)(C(C)C)OCC3 (stereo not shown) [Example 202, (5-bromo-6-fluoro-1-isopropyl-8-methyl-1,3,4,9-tetrahydropyrano[3,4-b]indol-1-yl)acetic acid]",82%,2900 nM
"CCCCC1(CC(=O)O)OCCc2c1[nH]c1c(C)cc(F)c(Br)c21 (stereo not shown) [Example 203, (5-bromo-1-butyl-6-fluoro-8-methyl-1,3,4,9-tetrahydropyrano[3,4-b]indol-1-yl)acetic acid]",94%,190 nM

Structure (SMILES),inhibition at 20 µM,IC50
"Cc1cc(F)c(Br)c2c3c([nH]c12)C(CC(=O)O)(c1ccc(C(=O)O)cc1)OCC3 (stereo not shown) [Example 204, 4-[5-bromo-1-(carboxymethyl)-6-fluoro-8-methyl-1,3,4,9-tetrahydropyrano[3,4-b]indol-1-yl]benzoic acid]",87%,1200 nM
"Cc1cc(F)c(C#N)c2c3c([nH]c12)C(C)(CC(=O)O)OCC3 (stereo not shown) [Example 205, (5-cyano-6-fluoro-1,8-dimethyl-1,3,4,9-tetrahydropyrano[3,4-b]indol-1-yl)acetic acid]",34%,> 20000 nM
"CCC1(CC(=O)O)OCCc2c1[nH]c1c(C)cc(F)c(C#N)c21 (stereo not shown) [Example 206, (5-cyano-1-ethyl-6-fluoro-8-methyl-1,3,4,9-tetrahydropyrano[3,4-b]indol-1-yl)acetic acid]",84%,1100 nM
"Cc1cc(F)c(C#N)c2c3c([nH]c12)C(CC(=O)O)(C(C)C)OCC3 (stereo not shown) [Example 207, (5-cyano-6-fluoro-1-isopropyl-8-methyl-1,3,4,9-tetrahydropyrano[3,4-b]indol-1-yl)acetic acid]",76%,580 nM
"CCCCC1(CC(=O)O)OCCc2c1[nH]c1c(C)cc(F)c(C#N)c21 (stereo not shown) [Example 208, (1-butyl-5-cyano-6-fluoro-8-methyl-1,3,4,9-tetrahydropyrano[3,4-b]indol-1-yl)acetic acid]",88%,230 nM
"Cc1cc(F)c(C#N)c2c3c([nH]c12)C(CC(=O)O)(c1ccc(C(=O)O)cc1)OCC3 (stereo not shown) [Example 209, 4-[1-(carboxymethyl)-5-cyano-6-fluoro-8-methyl-1,3,4,9-tetrahydropyrano[3,4-b]indol-1-yl]benzoic acid]",63%,17900 nM
"CCC1(CC(=O)O)OCCc2c1[nH]c1c(Br)ccc(Br)c21 (stereo not shown) [Example 210, (5,8-dibromo-1-ethyl-1,3,4,9-tetrahydropyrano[3,4-b]indol-1-yl)acetic acid]",87%,430 nM
"CCCC1(CC(=O)O)OCCc2c1[nH]c1c(Br)ccc(Br)c21 (stereo not shown) [Example 211, (5,8-dibromo-1-propyl-1,3,4,9-tetrahydropyrano[3,4-b]indol-1-yl)acetic acid]",89%,130 nM
"CC(C)C1(CC(=O)O)OCCc2c1[nH]c1c(Br)ccc(Br)c21 (stereo not shown) [Example 212, (5,8-dibromo-1-isopropyl-1,3,4,9-tetrahydropyrano[3,4-b]indol-1-yl)acetic acid]",81%,400 nM
"CCCCC1(CC(=O)O)OCCc2c1[nH]c1c(Br)ccc(Br)c21 (stereo not shown) [Example 213, (5,8-dibromo-1-butyl-1,3,4,9-tetrahydropyrano[3,4-b]indol-1-yl)acetic acid]",87%,280 nM
"CCCC1(CC(=O)O)OCCc2c1[nH]c1c(F)ccc(Cl)c21 (stereo not shown) [Example 214, (5-chloro-8-fluoro-1-propyl-1,3,4,9-tetrahydropyrano[3,4-b]indol-1-yl)acetic acid]",82%,740 nM
"CCCC1(CC(=O)O)OCCc2c1[nH]c1c(F)ccc(I)c21 (stereo not shown) [Example 215, (8-fluoro-5-iodo-1-propyl-1,3,4,9-tetrahydropyrano[3,4-b]indol-1-yl)acetic acid]",86%,320 nM
"CCCC1(CC(=O)O)OCCc2c1[nH]c1c(Cl)cc(C)c(Cl)c21 (stereo not shown) [Example 216, (5,8-dichloro-6-methyl-1-propyl-1,3,4,9-tetrahydropyrano[3,4-b]indol-1-yl)acetic acid]",86%,260 nM
"CCCC1(CC(=O)O)OCCc2c1[nH]c1c(Cl)cc(C)c(I)c21 (stereo not shown) [Example 217, (8-chloro-5-iodo-6-methyl-1-propyl-1,3,4,9-tetrahydropyrano[3,4-b]indol-1-yl)acetic acid]",88%,630 nM
"Cc1cc(F)c2[nH]c3c(c2c1C#N)CCOC3(C)CC(=O)O (stereo not shown) [Example 219, (5-cyano-8-fluoro-1,6-dimethyl-1,3,4,9-tetrahydropyrano[3,4-b]indol-1-yl)acetic acid]",30%,> 5000 nM
"CCC1(CC(=O)O)OCCc2c1[nH]c1c(F)cc(C)c(C#N)c21 (stereo not shown) [Example 220, (5-cyano-1-ethyl-8-fluoro-6-methyl-1,3,4,9-tetrahydropyrano[3,4-b]indol-1-yl)acetic acid]",43%,> 5000 nM
"Cc1cc(F)c2[nH]c3c(c2c1C#N)CCOC3(CC(=O)O)C(C)C (stereo not shown) [Example 222, (5-cyano-8-fluoro-1-isopropyl-6-methyl-1,3,4,9-tetrahydropyrano[3,4-b]indol-1-yl)aceti acid]",45%,> 5000 nM
